We go through 1 compound from patent US8168199B2, “Dipeptidyl peptidase IV inhibitors for the treatment of schizophrenia and depression” (priority 2000, dated 2012).

This test relates to Male WistarF/Han (WF) rats. In words: Elevated plus maze (EPM) testing, i.c.v. P32/98. In kind it is in vivo, rat. The protocol:
Animals. […]
Elevated plus maze (EPM) testing. […] The following parameters were calculated: Total numbers of arm entries (TA); entries to closed arms (CA); entries to open arms (OA); percentage frequency of entries to open arms (% OA: OA×100/TA); total trial duration (TT): 300 s; duration of stay in closed arms (closed time; CLT); percentage share of CLT in total arms-stay duration (CLT×100/AT); duration of stay in open arms (open time; OT) and percentage share of OT in total arm-stay duration (% OT: OT×100/AT). In addition to the standard spatiotemporal measurements, “time spent and percentage of time on the central square” were recorded (center time, CT: duration of stay on platform in seconds; percentage share of CT in trial duration, % CT: CT×100/TT). […]

On to `CC[C@H](C)[C@H](N)C(=O)N1CCSC1` [P32/98], for which the “effect of treatment on percentage of time spent on the open arms (analysis of variance)” value (i.c.v. aCSF, 0.05, 5, 500 nmol) was “significant effect”. The “percentage of time spent on the open arms of the EPM” value (i.c.v. low dose 50 pmol, 60 min before test, vs aCSF) was “increased”.
